Data set [1] has as its system HepG2 cells. The data set is described as follows: HepG2 cytotoxicity. Type of data set: cell-based, human. To be noted: Homo sapiens, HepG2, 72 h, 3 days exposure, CellTiter-Glo. As to the method:
HepG2 cells were used to measure eukaryotic cytotoxicity. Viability of HepG2 was measured using CellTiter-Glo reagent (Promega) after 3 days of exposure to compounds. […] Staurosporine controls (maximum inhibition) and a staurosporine dose response were included on every plate.
(In general: In ATP-based viability assays light output follows the ATP content of the culture.)

In data set [2] the target is CYP3A4 (Homo sapiens, UniProt P08684). The data set is described as follows: Cytochrome P450 inhibition. The format is in vitro ADME. Particulars: liver microsomes. As to the method: (§1) Table S4. Inhibition of cytochrome P450s.
Chain of CYP3A4 (P08684 2-503): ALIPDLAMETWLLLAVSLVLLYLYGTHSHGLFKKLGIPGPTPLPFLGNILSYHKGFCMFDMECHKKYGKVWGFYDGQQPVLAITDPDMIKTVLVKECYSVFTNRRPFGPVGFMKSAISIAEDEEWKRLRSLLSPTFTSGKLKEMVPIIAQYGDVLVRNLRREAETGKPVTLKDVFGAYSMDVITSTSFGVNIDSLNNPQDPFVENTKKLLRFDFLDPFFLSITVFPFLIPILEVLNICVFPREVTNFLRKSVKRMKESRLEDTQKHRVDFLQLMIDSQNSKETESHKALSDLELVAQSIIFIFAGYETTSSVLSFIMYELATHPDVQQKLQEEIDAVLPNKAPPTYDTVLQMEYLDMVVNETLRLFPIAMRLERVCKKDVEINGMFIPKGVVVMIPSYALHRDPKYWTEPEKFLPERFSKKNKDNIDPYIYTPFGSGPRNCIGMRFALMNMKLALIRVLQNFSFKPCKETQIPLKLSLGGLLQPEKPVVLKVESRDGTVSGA
(§2) Compounds were tested for inhibition of P450s using the enzyme substrate pairs and conditions noted. IC50s (µM) were calculated. Control P450 inhibitors were included for each isoform.
(§3) For each compound, the analytical method was developed as follows. Analyte signal was optimized for each compound by ESI positive or negative ionization mode. An MS2 scan or an SIM scan was used to optimize fragmenter voltage and a product ion analysis was used to identify the best fragment for analysis. The collision energy was optimized using a product ion or MRM scan. An ionization ranking was assigned indicating the compound’s ease of ionization. Samples […]
(§4) 1200 HPLC and a CTC PAL chilled autosampler, all controlled by MassHunter software (Agilent).
(§5) After separation on a C18 reverse phase HPLC column (Agilent Zorbax StableBond 3.5µm, 2.1 x 30 mm) using an acetonitrile -water gradient system, peaks were analyzed by mass spectrometry (MS) using ESI ionization in MRM mode.
(§6) (1 picture or pasted object on this page, not shown here)
(§7) Serial dilutions of a 10 mM stock solution were prepared in acetonitrile:DMSO (9:1). The final DMSO concentration was < 0.2%. Compounds were incubated with human liver microsomes in the presence of 2 mM NADPH in 100 mM potassium phosphate (pH 7.4) containing 5 mM magnesium chloride and a probe substrate, in a 200 µl assay final volume in duplicate. The probe substrate concentrations including bupropion (CYP2B6), amodiaquine (CYP2C8), tolbutamide (CYP2C9), mephenytoin (CYP2C19), dextromethorphan (CYP2D6) and midazolam/testosterone […]
(§8) After incubation at 37 °C, reactions were terminated by addition of methanol containing internal standard (propranolol) for analytical quantification. The quenched samples were kept on ice for 10 min and centrifuged at 4 °C for 10 min. The supernatant was removed and the probe substrate metabolite was analyzed by LC-MS/MS (Agilent Technologies Triple Quad LC/MS). A decrease in the formation of the metabolite compared to vehicle control
In general terms: Microsomes from liver hold many membrane-bound enzymes, among them those of drug oxidation.

For data set [3], the target named is CYP2D6 (Homo sapiens, UniProt P10635). The data set is described as follows: biochemical. As to the method: as §1
Chain of CYP2D6 (P10635 whole entry, canonical isoform): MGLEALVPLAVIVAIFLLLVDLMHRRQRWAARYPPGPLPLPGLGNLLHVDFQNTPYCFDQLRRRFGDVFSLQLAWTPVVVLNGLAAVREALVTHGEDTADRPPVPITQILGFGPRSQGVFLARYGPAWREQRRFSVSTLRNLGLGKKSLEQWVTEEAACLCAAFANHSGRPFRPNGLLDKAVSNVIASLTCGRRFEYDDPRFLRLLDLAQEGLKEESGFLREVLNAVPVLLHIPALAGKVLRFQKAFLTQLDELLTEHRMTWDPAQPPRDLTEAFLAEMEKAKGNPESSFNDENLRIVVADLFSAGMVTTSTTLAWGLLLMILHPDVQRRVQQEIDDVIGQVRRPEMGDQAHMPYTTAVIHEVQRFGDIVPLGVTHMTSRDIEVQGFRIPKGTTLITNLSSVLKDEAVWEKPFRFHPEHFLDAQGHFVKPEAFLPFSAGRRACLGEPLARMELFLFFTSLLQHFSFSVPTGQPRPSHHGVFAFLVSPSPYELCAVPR
Compounds were tested for inhibition of P450s using the enzyme substrate pairs and conditions noted. IC50s (µM) were calculated. Control P450 inhibitors were included for each isoform. […]
as §4, §5, §7, §8

Data set [4] in a line: Microsomal metabolic stability. To be noted: human; for half-life at 1 µM: liver microsomes.
In data set [5] the target is T1, CYP2B6 (Homo sapiens, UniProt P20813).
T1 sequence (P20813 1-491): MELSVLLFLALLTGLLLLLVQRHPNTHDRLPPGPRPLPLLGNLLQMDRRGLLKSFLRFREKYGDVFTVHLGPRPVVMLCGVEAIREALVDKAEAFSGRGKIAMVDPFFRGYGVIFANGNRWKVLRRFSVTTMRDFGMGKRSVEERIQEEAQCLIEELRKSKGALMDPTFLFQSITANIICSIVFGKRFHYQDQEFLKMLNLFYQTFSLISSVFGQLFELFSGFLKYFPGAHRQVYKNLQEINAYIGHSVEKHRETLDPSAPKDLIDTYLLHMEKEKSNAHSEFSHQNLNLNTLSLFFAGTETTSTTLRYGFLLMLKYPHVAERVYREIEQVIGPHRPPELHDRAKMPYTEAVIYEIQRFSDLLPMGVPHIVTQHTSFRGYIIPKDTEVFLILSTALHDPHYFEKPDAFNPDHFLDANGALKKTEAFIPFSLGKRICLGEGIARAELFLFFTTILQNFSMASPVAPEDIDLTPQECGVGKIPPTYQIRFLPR
The data set is described as follows: Cytochrome P450 inhibition. As to the method: as §1, §2, §3, §4, §5, §6, §7, §8

Data set [6] is described as follows: in vitro. Particulars: human; for Papp A→B at 2 h, 10 µM / Papp B→A at 2 h, 10 µM / efflux ratio at 2 h, 10 µM: Caco-2. A digest of the protocol:
(§9)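 Caco-2 monolayers dosed with 10 μM compound on apical or basolateral side; permeation measured on opposite side for A→B and B→A directions. Sampling at 1 and 2 h; permeability expressed as 10-6 cm s-1 from dQ/dt and initial concentration C0, with recovery.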
A general note: Caco-2 monolayers are a common model of the intestinal barrier.

In data set [7] the test system is Caco-2 cells. The data set is described as follows: Caco-2 permeability. To be noted: for recovery: human, 10 μM. A digest of the protocol:
as §9

The target in data set [8] is CYP2C19 (Homo sapiens, UniProt P33261). The data set is described as follows: biochemical. As to the method: as §1, §2, §3, §4, §5, §6, §7, §8
Chain of CYP2C19 (P33261 whole entry): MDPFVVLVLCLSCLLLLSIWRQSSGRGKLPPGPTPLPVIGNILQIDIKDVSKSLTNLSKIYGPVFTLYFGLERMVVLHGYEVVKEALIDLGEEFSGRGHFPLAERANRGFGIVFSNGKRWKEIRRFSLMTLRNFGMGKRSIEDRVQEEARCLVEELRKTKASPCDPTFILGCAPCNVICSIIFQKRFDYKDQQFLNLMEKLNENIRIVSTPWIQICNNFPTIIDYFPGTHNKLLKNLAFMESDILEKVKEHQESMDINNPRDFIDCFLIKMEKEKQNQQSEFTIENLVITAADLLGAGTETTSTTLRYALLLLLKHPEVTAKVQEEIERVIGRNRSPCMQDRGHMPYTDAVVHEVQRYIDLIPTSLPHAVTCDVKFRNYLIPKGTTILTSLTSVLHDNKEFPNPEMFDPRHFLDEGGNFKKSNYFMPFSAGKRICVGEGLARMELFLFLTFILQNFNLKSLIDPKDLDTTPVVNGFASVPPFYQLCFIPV
Data set [9] has as its target T2, CYP2C8 (Homo sapiens, UniProt P10632).
T2 sequence (P10632 1-490): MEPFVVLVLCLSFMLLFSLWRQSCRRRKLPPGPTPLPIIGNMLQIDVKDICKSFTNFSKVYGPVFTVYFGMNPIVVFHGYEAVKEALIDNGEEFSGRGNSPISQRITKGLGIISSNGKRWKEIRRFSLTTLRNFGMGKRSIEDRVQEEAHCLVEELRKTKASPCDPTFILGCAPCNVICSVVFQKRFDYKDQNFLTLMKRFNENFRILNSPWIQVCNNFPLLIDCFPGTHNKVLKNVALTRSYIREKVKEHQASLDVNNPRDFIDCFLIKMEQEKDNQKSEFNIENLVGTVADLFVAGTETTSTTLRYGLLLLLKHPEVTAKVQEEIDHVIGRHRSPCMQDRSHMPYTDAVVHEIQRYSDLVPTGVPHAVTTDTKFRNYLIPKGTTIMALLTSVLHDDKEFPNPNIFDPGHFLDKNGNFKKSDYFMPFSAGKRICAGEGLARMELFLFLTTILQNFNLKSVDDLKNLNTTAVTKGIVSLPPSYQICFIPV
The data set is described as follows: biochemical. As to the method:
as §1, §2, §3, §4, §5, §6, §7, §8

Take `CCCCNC(=S)Nc1nc(C)co1` [Molecule 21, 1-butyl-3-(4-methyloxazol-2-yl)thiourea]: the IC50 (in general, the concentration that inhibits the measured activity by half) is 42 ± 12 µM in [1]; above 20 µM in data set [3]; above 20 µM in [5]; above 20 µM in data set [8]; above 20 µM in data set [9]. Also, the concentration for half-maximal inhibition (IC50) at 10 min in data set [2] (pH 7.4, probe midazolam) is above 20 µM; in data set [2] (pH 7.4, probe testosterone) it was 11.9 µM. Moreover, the half-life – broadly, the time needed for the level to fall by half in the phase considered – at 1 µM in data set [4] (pH 7.4) stood at 13 min. Further, the microsomal CLint (as a rule, the rate of metabolic loss divided by the concentration) at 1 µM in [4] (microsomes, pH 7.4) came to 179 µL/min/mg. Also, the apparent permeability from apical to basolateral (Papp A→B) – broadly, the apparent permeability from the apical to the basolateral side of a cell layer – at 2 h, 10 µM in data set [6] is 21 ×10⁻⁶ cm/s. Besides, the apparent permeability from basolateral to apical (Papp B→A) (commonly the apparent permeability from the basolateral to the apical side of a cell layer) at 2 h, 10 µM in [6] came to 19 ×10⁻⁶ cm/s. In addition, in [6], the efflux ratio – broadly, the permeability from basolateral to apical divided by that in the opposite direction, in the common usage – at 2 h, 10 µM was found to be 0.89. This compound also gave a recovery at 1 h, 10 μM in data set [6] (Caco-2, recovery) of 59%. This compound also registered a recovery at 2 h, 10 μM in data set [6] (Caco-2, recovery) of 56%. The “dQ/dt (rate of permeation), mean” value in data set [7] (A→B, assay duration 1 hr) was 4.2E-04; in data set [7] (A→B, assay duration 2 hr), 3.0E-04; in [7] (B→A, assay duration 1 hr), 3.8E-04; in data set [7] (B→A, assay duration 2 hr), 2.8E-04. Further, the recovery in data set [7] (Caco-2, 1 h) came out at 77%; in [7] (Caco-2, 2 h), 67%.
For the compound `CCCCNC(=S)Nc1nc2ccccc2s1` [Molecule 1, 1-(benzo[d]thiazol-2-yl)-3-butylthiourea], the half-inhibitory concentration (IC50) is 26 ± 12 µM in data set [1]; above 20 µM in [3]; above 20 µM in data set [5]; 4.6 µM in data set [8]; above 20 µM in data set [9]. Further, the IC50 at 10 min in [2] (pH 7.4, probe midazolam) was above 20 µM; in [2] (pH 7.4, probe testosterone) it was above 20 µM. This compound also registered a half-life at 1 µM in [4] (pH 7.4) of 24 min. In addition, the “Percent remaining %REavg” value in data set [4] (microsomes, 5 min, 1 µM, pH 7.4) was found to be 98.1%. Moreover, in data set [4] (microsomes, pH 7.4), the intrinsic metabolic clearance (microsomal CLint) at 1 µM was determined as 96 µL/min/mg. In [4] (microsomes, pH 7.4, Percent remaining %REavg), the share remaining (commonly the share of the starting amount still present when the sample was taken) at 5 min, 1 µM is 96.6%. In data set [6], the apical-to-basolateral permeability (Papp A→B) at 2 h, 10 µM was 1.4 ×10⁻⁶ cm/s. Also, the Papp B→A at 2 h, 10 µM in [6] came out at 2.5 ×10⁻⁶ cm/s. In data set [6], the efflux ratio at 2 h, 10 µM turned out to be 1.7. The “dQ/dt (rate of permeation), mean” value in [7] (A→B, assay duration 1 hr) is given as 9.7E-06; in [7] (A→B, assay duration 2 hr) it was 2.1E-05; in data set [7] (B→A, assay duration 1 hr), 2.4E-05; in data set [7] (B→A, assay duration 2 hr) it was 3.8E-05.

Values taken from publication PMC9927457 (Microbiology Spectrum, 2023).
